Earlier results as cited in US20120148649A1, “COMPOSITION FOR RESTORATION OF AGE RELATED TISSUE IN THE FACE OR SELECTED AREAS OF THE BODY” (priority 2004, published 2012).

What was measured:
tumor growth = conditions: deuterium concentration from 0.1 to 110 ppm; animal model studies
cancer patients = conditions: human clinical trials, hundreds of cancer patients

deuterium depleted water
effect on tumor growth (tumor growth): inhibits tumor growth | effect on life span of cancer patients (cancer patients): extended life span
